From patent publication US4427587A, “Total synthesis of antitumor antibiotics BBM-2040A and BBM-2040B” (Bristol-Myers Company, priority 1982, dated 1984)
Values after ≈ are worked out from the molar mass of the structure shown. Like-named read-outs stand apart in the source and are kept apart here.

Experiments:
lymphatic leukemia P388 = assay: antitumor activity against P388 leukemia in mice, second experiment (Table 7); type: in vivo, male BDF1 mice; settings: QD 1→9; for Effect MST % T/C: ≥ 125 significant; for antitumor activity in second P388 experiment (in words): i.p., epimer: 1 mg/kg/day, the highest dose tested
Experimental: In this experiment lymphatic leukemia P388 was implanted intraperitoneally into male BDF1 mice at an inoculum size of 10^6 cells per mouse. Test compounds were dissolved in 0.9% saline containing 10% dimethylsulfoxide. Graded doses of test compounds were administered to mice intraperitoneally 24 hours after the tumor implantation, and the treatment was continued once daily for 9 days.
Tumor inoculum: 10^6 ascites cells implanted i.p.
Treatment: QD 1→9, i.p.
Evaluation: MST = median survival time
Effect: % T/C = (MST treated/MST control) × 100
Criteria: % T/C ≥ 125 considered as significant antitumor activity

[1] = tested on: gram-positive, gram-negative and acid-fast bacteria; assay: antibacterial activity / spectrum; type: cell-based; settings: Streptococcus pyogenes, Micrococcus luteus, Micrococcus flavus and Mycobacterium strains
Experimental: (§1) The minimum inhibitory concentration (MIC) of BBM-2040 was determined for a variety of gram-positive, gram-negative and acid-fast bacteria by the serial two-fold agar dilution method. Nutrient agar medium was used for gram-positive and gram-negative organisms and No. 1001 medium (3% glycerol, 0.3% sodium L-glutamate, 0.2% peptone, 0.31% Na2 HPO4, 0.1% KH2 PO4, 0.005% ammonium citrate, 0.001% MgSO4 and 1.5% agar) for acid-fast organisms.

[2] = tested on: lymphocytic leukemia P388; assay: antitumor activity against lymphocytic leukemia P388 in mice (Table 6); type: in vivo, mice (BDF1 strain); settings: qd 1→9; for antitumor activity in P388 experiment (comparison): ip
Experimental: The antitumor activity of BBM-2040A and B was determined in mice (BDF1 strain) against lymphocytic leukemia P388. Each mouse was inoculated intraperitoneally with 10^6 cells of tumor. Graded doses of test compounds were administered to mice intraperitoneally 24 hours after the tumor implantation. The treatments were given once daily for 9 days (qd 1→9 schedule). Neothramycin was comparatively tested as a reference compound.
*ratio of median survival time of test and control animals
**circle indicates significant antitumor effect.

Mycobacterium phlei D88 = assay: MIC, serial two-fold agar dilution method; type: cell-based; settings: Mycolicibacterium phlei
Experimental: as §1

[3] = tested on: Pseudomonas aeruginosa A9930; assay: MIC, serial two-fold agar dilution method; type: cell-based
Experimental: as §1

[4] = tested on: Staphylococcus aureus Smith; assay: MIC, serial two-fold agar dilution method; type: cell-based
Experimental: as §1

[5] = tested on: Streptococcus pyogenes A20201; assay: MIC, serial two-fold agar dilution method; type: cell-based
Experimental: as §1

[6] = tested on: Mycobacterium smegmatis 607; assay: MIC, serial two-fold agar dilution method; type: cell-based; settings: Mycolicibacterium smegmatis
Experimental: as §1

Escherichia coli NIHJ = assay: MIC, serial two-fold agar dilution method; type: cell-based
Experimental: as §1

[7] = tested on: Bacillus subtilis PCI 219; assay: MIC, serial two-fold agar dilution method; type: cell-based; settings: PCI219
Experimental: as §1

[8] = tested on: Staphylococcus aureus FDA 209P; assay: MIC, serial two-fold agar dilution method; type: cell-based; settings: FDA209P
Experimental: as §1

Proteus vulgaris A9436 = assay: MIC, serial two-fold agar dilution method; type: cell-based
Experimental: as §1

Escherichia coli Juhl = assay: MIC, serial two-fold agar dilution method; type: cell-based
Experimental: as §1

[9] = tested on: Klebsiella pneumoniae D-11; assay: MIC, serial two-fold agar dilution method; type: cell-based; settings: D11
Experimental: as §1

Micrococcus flavus D12 = assay: MIC, serial two-fold agar dilution method; type: cell-based
Experimental: as §1

[10] = tested on: Streptococcus pyogenes PCI 1001; assay: MIC, serial two-fold agar dilution method; type: cell-based; settings: PCI1001
Experimental: as §1

[11] = intraperitoneal; reported value; cited from earlier work
[12] = benzene, chloroform and n-hexane
[13] = ethyl acetate, acetone and water
[14] = methanol ethanol, n-butanol and pyridine
[15] = Mycobacterium phlei D88, No. 1001 medium, read-out: MIC
[16] = Staphylococcus aureus Smith, read-out: MIC
[17] = Mycobacterium smegmatis 607, No. 1001 medium, read-out: MIC
[18] = Escherichia coli NIHJ, read-out: MIC
[19] = Bacillus subtilis PCI 219, read-out: MIC
[20] = Staphylococcus aureus FDA 209P, read-out: MIC
[21] = Escherichia coli Juhl, read-out: MIC
[22] = Klebsiella pneumoniae D-11, read-out: MIC
[23] = Streptococcus pyogenes PCI 1001, read-out: MIC

COc1cc2c(cc1O)N[C@H](OC)[C@@H]1C[C@@H](O)CN1C2=O [2β-Hydroxy epimer of BBM-2040 A]
Average weight change (lymphatic leukemia P388; 0.03 mg/kg/day i.p.): +1.0 g
MST (lymphatic leukemia P388; 0.03 mg/kg/day i.p.): 10.5 days
Survivors Day 5 (lymphatic leukemia P388; 0.03 mg/kg/day i.p.): 6/6
Survivors Day 22 (lymphatic leukemia P388; 0.03 mg/kg/day i.p.): 0/6
Effect MST % T/C (lymphatic leukemia P388; 0.03 mg/kg/day i.p.): 88%
Average weight change (lymphatic leukemia P388; 0.1 mg/kg/day i.p.): +1.3 g
MST (lymphatic leukemia P388; 0.1 mg/kg/day i.p.): 11.0 days
Survivors Day 5 (lymphatic leukemia P388; 0.1 mg/kg/day i.p.): 6/6
Survivors Day 22 (lymphatic leukemia P388; 0.1 mg/kg/day i.p.): 0/6
Effect MST % T/C (lymphatic leukemia P388; 0.1 mg/kg/day i.p.): 92%
Average weight change (lymphatic leukemia P388; 0.3 mg/kg/day i.p.): +1.8 g
MST (lymphatic leukemia P388; 0.3 mg/kg/day i.p.): 11.0 days
Survivors Day 5 (lymphatic leukemia P388; 0.3 mg/kg/day i.p.): 6/6
Survivors Day 22 (lymphatic leukemia P388; 0.3 mg/kg/day i.p.): 0/6
Effect MST % T/C (lymphatic leukemia P388; 0.3 mg/kg/day i.p.): 92%
Average weight change (lymphatic leukemia P388; 1 mg/kg/day i.p.): +1.0 g
MST (lymphatic leukemia P388; 1 mg/kg/day i.p.): 12.0 days
Survivors Day 5 (lymphatic leukemia P388; 1 mg/kg/day i.p.): 6/6
Survivors Day 22 (lymphatic leukemia P388; 1 mg/kg/day i.p.): 0/6
Effect MST % T/C (lymphatic leukemia P388; 1 mg/kg/day i.p.): 100%
antitumor activity in second P388 experiment (in words) (lymphatic leukemia P388): inactive

COc1cc2c(cc1O)N[C@H](OC)[C@@H]1C[C@H](O)CN1C2=O [BBM-2040A, 2(S),11(R),11a(S)-1,2,3,10,11,11a-Hexahydro-2,8-dihydroxy-7,11-dimethoxy-5H-pyrrolo-[2,1-c][1,4]benzodiazepin-5-one]
antibacterial activity [1]: weak antibacterial activity
Average weight change (lymphatic leukemia P388; 0.1 mg/kg/day i.p.): +1.5 g
MST (lymphatic leukemia P388; 0.1 mg/kg/day i.p.): 12.0 days
Effect MST % T/C (lymphatic leukemia P388; 0.1 mg/kg/day i.p.): 100%
Average weight change (lymphatic leukemia P388; 0.3 mg/kg/day i.p.): +1.3 g
MST (lymphatic leukemia P388; 0.3 mg/kg/day i.p.): 14.0 days
Effect MST % T/C (lymphatic leukemia P388; 0.3 mg/kg/day i.p.): 117%
MST (lymphatic leukemia P388; 1 mg/kg/day i.p.): 16.0 days
Effect MST % T/C (lymphatic leukemia P388; 1 mg/kg/day i.p.): 133%
Average weight change (lymphatic leukemia P388; 3 mg/kg/day i.p.): +0.5 g
MST (lymphatic leukemia P388; 3 mg/kg/day i.p.): 17.0 days
Survivors Day 5 (lymphatic leukemia P388; 3 mg/kg/day i.p.): 6/6
Survivors Day 22 (lymphatic leukemia P388; 3 mg/kg/day i.p.): 0/6
Effect MST % T/C (lymphatic leukemia P388; 3 mg/kg/day i.p.): 142%
Average weight change (lymphatic leukemia P388; 10 mg/kg/day i.p.): -2.2 g
MST (lymphatic leukemia P388; 10 mg/kg/day i.p.): 19.5 days
Survivors Day 5 (lymphatic leukemia P388; 10 mg/kg/day i.p.): 6/6
Survivors Day 22 (lymphatic leukemia P388; 10 mg/kg/day i.p.): 1/6
Effect MST % T/C (lymphatic leukemia P388; 10 mg/kg/day i.p.): 163%
antitumor activity in second P388 experiment (in words) (lymphatic leukemia P388): similarly active
solubility (solubility; [12]): practically insoluble
solubility (solubility; [13]): slightly soluble
solubility (solubility; [14]): readily soluble
T/C (%) in MST ([2]; 0.1 mg/kg/day ip): 96%
T/C (%) in MST ([2]; 0.3 mg/kg/day ip): 104%
antitumor activity in P388 experiment (comparison) [2]: similarly active
MIC (Mycobacterium phlei D88; [15]): 100 µg/mL (≈ 340 µM)
MIC ([3]; read-out: MIC): > 100 µg/mL
MIC [4, 16]: > 100 µg/mL
MIC ([5]; read-out: MIC): 50 µg/mL (≈ 170 µM)
MIC [6, 17]: 100 µg/mL (≈ 340 µM)
MIC (Escherichia coli NIHJ; [18]): > 100 µg/mL
MIC [7, 19]: > 100 µg/mL
MIC [8, 20]: > 100 µg/mL
MIC (Proteus vulgaris A9436; read-out: MIC): > 100 µg/mL
MIC (Escherichia coli Juhl; [21]): > 100 µg/mL
MIC [9, 22]: > 100 µg/mL
MIC (Micrococcus flavus D12; read-out: MIC): 50 µg/mL (≈ 170 µM)
MIC [10, 23]: 50 µg/mL (≈ 170 µM)

COc1cc2c(cc1O)N=C[C@@H]1C[C@H](O)CN1C2=O [BBM-2040B]
antibacterial activity [1]: weak antibacterial activity
solubility (solubility; [12]): practically insoluble
solubility (solubility; [13]): slightly soluble
solubility (solubility; [14]): readily soluble
T/C (%) in MST ([2]; 0.1 mg/kg/day ip): 104%
T/C (%) in MST ([2]; 0.3 mg/kg/day ip): 96%
T/C (%) in MST ([2]; 1 mg/kg/day ip): 112%
antitumor activity in P388 experiment (comparison) [2]: somewhat less active than BBM-2040A
MIC (Mycobacterium phlei D88; [15]): 100 µg/mL (≈ 381 µM)
MIC ([3]; read-out: MIC): > 100 µg/mL
MIC [4, 16]: > 100 µg/mL
MIC ([5]; read-out: MIC): 50 µg/mL (≈ 191 µM)
MIC [6, 17]: 100 µg/mL (≈ 381 µM)
MIC (Escherichia coli NIHJ; [18]): > 100 µg/mL
MIC [7, 19]: > 100 µg/mL
MIC [8, 20]: > 100 µg/mL
MIC (Proteus vulgaris A9436; read-out: MIC): > 100 µg/mL
MIC (Escherichia coli Juhl; [21]): > 100 µg/mL
MIC [9, 22]: > 100 µg/mL
MIC (Micrococcus flavus D12; read-out: MIC): 50 µg/mL (≈ 191 µM)
MIC [10, 23]: 100 µg/mL (≈ 381 µM)

COc1cc2c(cc1O)N=CC1CCC(O)N1C2=O (stereo not drawn) [Neothramycin]
Average weight change (lymphatic leukemia P388; 0.1 mg/kg/day i.p.): +1.0 g
MST (lymphatic leukemia P388; 0.1 mg/kg/day i.p.): 13.0 days
Survivors Day 5 (lymphatic leukemia P388; 0.1 mg/kg/day i.p.): 6/6
Survivors Day 22 (lymphatic leukemia P388; 0.1 mg/kg/day i.p.): 0/6
Effect MST % T/C (lymphatic leukemia P388; 0.1 mg/kg/day i.p.): 108%
Average weight change (lymphatic leukemia P388; 0.3 mg/kg/day i.p.): +0.8 g
MST (lymphatic leukemia P388; 0.3 mg/kg/day i.p.): 14.5 days
Survivors Day 5 (lymphatic leukemia P388; 0.3 mg/kg/day i.p.): 6/6
Survivors Day 22 (lymphatic leukemia P388; 0.3 mg/kg/day i.p.): 0/6
Effect MST % T/C (lymphatic leukemia P388; 0.3 mg/kg/day i.p.): 121%
Average weight change (lymphatic leukemia P388; 1 mg/kg/day i.p.): +0.5 g
MST (lymphatic leukemia P388; 1 mg/kg/day i.p.): 17.0 days
Survivors Day 5 (lymphatic leukemia P388; 1 mg/kg/day i.p.): 6/6
Survivors Day 22 (lymphatic leukemia P388; 1 mg/kg/day i.p.): 0/6
Effect MST % T/C (lymphatic leukemia P388; 1 mg/kg/day i.p.): 142%
Average weight change (lymphatic leukemia P388; 3 mg/kg/day i.p.): 0.0 g
MST (lymphatic leukemia P388; 3 mg/kg/day i.p.): 17.5 days
Survivors Day 5 (lymphatic leukemia P388; 3 mg/kg/day i.p.): 6/6
Survivors Day 22 (lymphatic leukemia P388; 3 mg/kg/day i.p.): 0/6
Effect MST % T/C (lymphatic leukemia P388; 3 mg/kg/day i.p.): 146%
antitumor activity in second P388 experiment (in words) (lymphatic leukemia P388): similarly active
T/C (%) in MST ([2]; 0.03 mg/kg/day ip): 96%
T/C (%) in MST ([2]; 0.1 mg/kg/day ip): 104%
T/C (%) in MST ([2]; 0.3 mg/kg/day ip): 112%
antitumor activity in P388 experiment (comparison) [2]: similarly active
LD50 [11]: 20 to 30 mg/kg
MIC (Mycobacterium phlei D88; D88): > 100 µg/mL
MIC [3]: > 100 µg/mL
MIC ([4]; Staphylococcus aureus): > 100 µg/mL
MIC [5]: 50 µg/mL (≈ 191 µM)
MIC [6]; 607: > 100 µg/mL
MIC (Escherichia coli NIHJ; Escherichia coli): 50 µg/mL (≈ 191 µM)
MIC ([7]; Bacillus subtilis): 50 µg/mL (≈ 191 µM)
MIC ([8]; Staphylococcus aureus): > 100 µg/mL
MIC (Proteus vulgaris A9436): 100 µg/mL (≈ 381 µM)
MIC (Escherichia coli Juhl; Escherichia coli): > 100 µg/mL
MIC ([9]; Klebsiella pneumoniae): 100 µg/mL (≈ 381 µM)
MIC (Micrococcus flavus D12): 100 µg/mL (≈ 381 µM)
MIC ([10]; Streptococcus pyogenes): 100 µg/mL (≈ 381 µM)
